In US12492193B2, “Pyrazole derivatives for the treatment of cystic fibrosis” (Fondazione Istituto Italiano Di Tecnologia, priority 2017, dated 2025):

Biological target: T1, mutant CFTR (Homo sapiens, UniProt P13569, DEL508-508)
T1 construct: expressed in transfected cells
Test: Fluorescence (HS-YFP) assay for CFTR activity, corrector assay
Format: cell-based
Details: CFBE41o- and FRT cells with stable expression of mutant CFTR, 24 h compound treatment
Description: Fluorescence Assay for CFTR Activity
Mutant CFTR activity was determined with the functional assay based on the halide-sensitive yellow fluorescent protein, HS-YFP (Galietta et al., FEBS Lett 499: 220-224, 2001). CFBE41o- and FRT cells with stable expression of mutant CFTR and HS-YFP were plated on clear-bottom 96-well black microplates (Code 3603, Corning Life Sciences) at a density of 50,000 cells/well and kept at 37° C. in 5% CO2 for 24 hours. For the corrector assay, cells were treated for further 24 hours with test compounds, vehicle (DMSO), or the positive control VX-809. After treatment, the culture medium was removed and cells in each well were stimulated for 30 min at 37° C. with 60 μL PBS (containing 137 mM NaCl, 2.7 mM KCl, 8.1 mM Na2HPO4, 1.5 mM KH2PO4, 1 mM CaCl2, and 0.5 mM MgCl2) plus forskolin (20 μM) and genistein (50 μM).
For determination of potentiator activity on G551D-CFTR or G1349D-CFTR, cells were directly stimulated with forskolin plus test compound without previous incubation at low temperature. At the time of assay, microplates carrying CFBE41o- or FRT cells were transferred to microplate readers (BMG Labtech) equipped with high-quality excitation (HQ500/20X: 500±10 nm) and emission (HQ535/30M: 535±15 nm) filters for YFP (Chroma Technology). The assay consisted of a continuous 14 s fluorescence reading with 2 s before and 12 s after injection of an iodide-containing solution (165 μL of a modified PBS containing I^− instead of Cl^−; final I^− concentration in the well: 100 mM). Data were normalized to the initial background-subtracted fluorescence. Enhanced CFTR activity, induced by correctors and/or potentiators, results in accelerated I^− influx that in turn causes faster HS-YFP quenching (Pedemonte et al., Mol Pharmacol 68:1736-1746, 2005; Pedemonte et al., J Clin Invest 115:2564-2571, […]). To determine fluorescence quenching rate associated with I^− influx, the […] 10 s of data for each well were fitted with an exponential function to extrapolate initial slope (dF/dt).
EC50 obtained are illustrated in table 1 wherein +: EC50>2 μM; ++: 1.0 μM<EC50<2 μM; +++: EC50<1 μM.

T1 sequence (P13569 with tags, fused parts or gaps DEL508-508): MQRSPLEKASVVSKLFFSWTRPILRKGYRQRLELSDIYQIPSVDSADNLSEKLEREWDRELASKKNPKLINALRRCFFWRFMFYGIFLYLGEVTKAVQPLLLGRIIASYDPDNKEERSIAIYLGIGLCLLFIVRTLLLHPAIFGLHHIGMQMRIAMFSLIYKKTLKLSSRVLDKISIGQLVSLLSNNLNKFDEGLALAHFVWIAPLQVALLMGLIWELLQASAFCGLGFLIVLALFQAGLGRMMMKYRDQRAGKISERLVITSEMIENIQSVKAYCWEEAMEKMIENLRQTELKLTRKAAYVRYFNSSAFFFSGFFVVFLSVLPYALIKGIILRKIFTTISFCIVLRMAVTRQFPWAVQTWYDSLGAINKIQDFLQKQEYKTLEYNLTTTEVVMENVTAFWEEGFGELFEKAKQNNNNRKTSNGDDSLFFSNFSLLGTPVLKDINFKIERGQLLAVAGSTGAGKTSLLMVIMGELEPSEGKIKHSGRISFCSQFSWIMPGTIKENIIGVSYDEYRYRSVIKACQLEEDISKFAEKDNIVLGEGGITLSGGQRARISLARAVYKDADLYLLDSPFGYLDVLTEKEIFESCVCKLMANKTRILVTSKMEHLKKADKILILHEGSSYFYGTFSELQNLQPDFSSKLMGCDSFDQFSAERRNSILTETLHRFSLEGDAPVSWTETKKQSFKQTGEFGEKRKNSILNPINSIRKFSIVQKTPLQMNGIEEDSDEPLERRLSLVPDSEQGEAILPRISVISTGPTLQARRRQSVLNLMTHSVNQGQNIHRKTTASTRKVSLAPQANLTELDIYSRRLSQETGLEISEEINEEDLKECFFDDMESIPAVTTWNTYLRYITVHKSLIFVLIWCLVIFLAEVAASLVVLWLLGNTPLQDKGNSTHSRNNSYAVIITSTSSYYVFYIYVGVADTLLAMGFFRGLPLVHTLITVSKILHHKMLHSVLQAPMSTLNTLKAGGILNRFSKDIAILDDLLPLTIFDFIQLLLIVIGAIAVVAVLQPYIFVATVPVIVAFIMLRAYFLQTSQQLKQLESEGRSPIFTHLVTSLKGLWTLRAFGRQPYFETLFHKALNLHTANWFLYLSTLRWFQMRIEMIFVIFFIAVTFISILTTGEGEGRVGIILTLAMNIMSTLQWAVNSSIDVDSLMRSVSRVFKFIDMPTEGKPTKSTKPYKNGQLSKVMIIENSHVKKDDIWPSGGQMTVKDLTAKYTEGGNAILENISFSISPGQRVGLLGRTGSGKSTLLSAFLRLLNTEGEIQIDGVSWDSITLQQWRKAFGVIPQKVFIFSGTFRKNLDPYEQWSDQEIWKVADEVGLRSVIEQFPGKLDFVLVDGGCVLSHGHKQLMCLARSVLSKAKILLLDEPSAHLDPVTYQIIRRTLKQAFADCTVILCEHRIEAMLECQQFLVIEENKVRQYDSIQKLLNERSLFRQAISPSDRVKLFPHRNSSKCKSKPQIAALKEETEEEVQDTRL

EC50 [nM]	SMILES
< 1000	CN(C(=O)c1cccc(-n2nc(C(F)(F)F)cc2-c2ccccc2C(F)(F)F)c1)c1ccc2c(c1)OCO2 [compound 176, N-(1,3-Benzodioxol-5-yl)-N-methyl-3-[3-(trifluoromethyl)-5-[2-(trifluoromethyl)phenyl]pyrazol-1-yl]benzamide]
< 1000	CN(C(=O)c1cccc(-n2nc(C(F)(F)F)cc2OCCc2ccccc2)c1)c1ccc2c(c1)OCO2 [compound 133, N-(1,3-Benzodioxol-5-yl)-N-methyl-3-[5-phenethyloxy-3-(trifluoromethyl)pyrazol-1-yl]benzamide]
< 1000	Cc1nc2ccc(N(C)C(=O)c3cccc(-n4nc(C(F)(F)F)c(Cl)c4OCc4ccc(C(=O)O)cc4)c3)cc2o1 [compound 198, 4-[[4-Chloro-2-[3-[methyl-(2-methyl-1,3-benzoxazol-6-yl)carbamoyl]phenyl]-5-(trifluoromethyl)pyrazol-3-yl]oxymethyl]benzoic acid]
1000 to 2000	Cc1cc2ncc(N(C)C(=O)c3cccc(-n4nc(C(F)(F)F)c(Cl)c4COc4ccc(C(=O)O)cc4)c3)cn2n1 [compound 238, 4-[[4-Chloro-2-[3-[methyl-(2-methylpyrazolo[1,5-a]pyrimidin-6-yl)carbamoyl]phenyl]-5-(trifluoromethyl)pyrazol-3-yl]methoxy]benzoic acid]
> 2000	Cc1nn(-c2cccc(C(=O)Nc3ccc4c(c3)OCCO4)c2)c(C)c1Cl [Int-002, 3-(4-Chloro-3,5-dimethyl-pyrazol-1-yl)-N-(2,3-dihydro-1,4-benzodioxin-6-yl)benzamide]
> 2000	Cc1c(Cl)c(C(=O)O)nn1-c1cccc(C(=O)N(C)c2ccc3c(c2)OCO3)c1 [compound 069, 1-[3-[1,3-Benzodioxol-5-yl(methyl)carbamoyl]phenyl]-4-chloro-5-methyl-pyrazole-3-carboxylic acid]
1000 to 2000	Cc1ccc(C(=O)N(C)c2ccc3c(c2)OCO3)cc1-n1nc(C)c(Cl)c1C [compound 082, N-(1,3-Benzodioxol-5-yl)-3-(4-chloro-3,5-dimethyl-pyrazol-1-yl)-N,4-dimethyl-benzamide]

Further lines, the molecule ahead of its results:

SMILES	EC50 [nM]
CN(C(=O)c1cccc(-n2nc(C(F)(F)F)c(C#N)c2COc2ccc(C(=O)O)cc2)c1)c1ccc2c(c1)OC(F)(F)O2 [compound 224, 4-[[4-Cyano-2-[3-[(2,2-difluoro-1,3-benzodioxol-5-yl)-methyl-carbamoyl]phenyl]-5-(trifluoromethyl)pyrazol-3-yl]methoxy]benzoic acid]	< 1000
CO[C@H](c1ccccc1)c1c(Cl)c(C)nn1-c1cccc(C(=O)N(C)c2ccc3c(c2)OCO3)c1 (racemic) [compound 117, N-(1,3-Benzodioxol-5-yl)-3-[4-chloro-5-[(rac)-methoxy (phenyl)methyl]-3-methyl-pyrazol-1-yl]-N-methyl-benzamide]	< 1000
CCOC(=O)c1cc(C(F)(F)F)nn1-c1cccc(C(=O)N(C)c2ccc3c(c2)OCO3)c1 [compound 130, Ethyl 2-[3-[1,3-benzodioxol-5-yl(methyl)carbamoyl]phenyl]-5-(trifluoromethyl)pyrazole-3-carboxylate]	< 1000
Cc1nn(-c2cccc(C(=O)Nc3ccc4oc(C(F)(F)F)nc4c3)c2)c(C)c1Cl [compound 054, 3-(4-Chloro-3,5-dimethyl-pyrazol-1-yl)-N-[2-(trifluoromethyl)-1,3-benzoxazol-5-yl]benzamide]	1000 to 2000
CCOC(=O)c1c(Cl)c(C(C)C)nn1-c1cccc(C(=O)N(C)c2ccc3c(c2)OCO3)c1 [compound 087, Ethyl 2-[3-[1,3-benzodioxol-5-yl(methyl)carbamoyl]phenyl]-4-chloro-5-isopropyl-pyrazole-3-carboxylate]	< 1000
CN(C(=O)c1cccc(-n2nc(C(F)(F)F)c(C#N)c2Oc2ccccc2)c1)c1ccc2c(c1)OCO2 [compound 185, N-(1,3-Benzodioxol-5-yl)-3-[4-cyano-5-phenoxy-3-(trifluoromethyl)pyrazol-1-yl]-N-methyl-benzamide]	< 1000
